# How the values were obtained:
# Format in all cases: in vivo
# [1] = test system: F-cells; experiment: Percentage of F-cells using antibodies against fetal hemoglobin by FACS, blood of treated SCD mice; details: Townes S/S mice; for effect on proportion of circulating erythroid cells expressing fetal hemoglobin (conclusion): 185 mg/kg i.p. daily D0 to D15
# Description: (§1) The aim of the present study was to evaluate, the effects of i.p. daily administration of compounds 001, 010 and 011 at 185 mg/kg as modulator of red blood cell sickling and fetal hemoglobin expression in erythroid cells and its potential role in therapy for sickle cell disease on mouse model of SCD.
# (§2) Townes S/S mice on a 129/B6 mixed genetic background.
# (§3) The powders of compounds 001, 010 and 011 (185 mg/kg) were dissolved in vehicle (the solution is used at room temperature for maximum 1 day). A fresh sample for each administration was prepared every day except the week-end (the solution is prepared on Saturday and is used on Saturday and Sunday).
# (§4) In Townes S/S mice, mouse alpha- and beta-globin gene loci are deleted and replaced by human alpha- and beta-globin genes. When carrying two copies of the beta S allele, mice develop a human sickle disease phenotype with sickle-shaped red blood cells are seen in blood smears.
# (§5) Group description: • Group 1: Vehicle (i.p.) • Group 2: compound 001 (185 mg/kg) • Group 3 compound 010 (185 mg/kg) • Group 4: compound 011 (185 mg/kg)
# (§6) Mice were i.p treated with compounds 001, 010 and 011 during all the experiment (D0 to D15) once per day. Last injection occurred 24 hours before sacrifice.
# (§7) Retro-orbital blood collection was performed at the inclusion D0 and at D5, D10 and D15 through facial vein bleeding.
# (§8) Ex-vivo blood collected were assessed for percentage of F-cells using antibodies against fetal hemoglobin by FACS and reticulocyte counts using reticount by FACS. Red blood cells sickling was assessed under hypoxia.
# [2] = test system: reticulocytes; experiment: Reticulocyte counts using Reticount by FACS, blood of treated SCD mice; details: Townes S/S mice, 185 mg/kg/d i.p.
# Description: The aim of the present study was to evaluate, the effects of i.p. daily administration of compounds 001, 010 and 011 at 185 mg/kg as modulator of red blood cell sickling and fetal hemoglobin expression in erythroid cells and its potential role in therapy for sickle cell disease on mouse model of SCD. Townes S/S mice on a 129/B6 mixed genetic background. The powders of compounds 001, 010 and 011 (185 mg/kg) were dissolved in vehicle (the solution is used at room temperature for maximum 1 day). A fresh sample for each administration was prepared every day except the week-end (the solution is prepared on Saturday and is used on Saturday and Sunday). In Townes S/S mice, mouse alpha- and beta-globin gene loci are deleted and replaced by human alpha- and beta-globin genes. When carrying two copies of the beta S allele, mice develop a human sickle disease phenotype with sickle-shaped red blood cells are seen in blood smears. Group description: • Group 1: Vehicle (i.p.) • Group 2: compound 001 (185 mg/kg) • Group 3 compound 010 (185 mg/kg) • Group 4: compound 011 (185 mg/kg) Mice were i.p treated with compounds 001, 010 and 011 during all the experiment (D0 to D15) once per day. […] Ex-vivo blood collected were assessed for percentage of F-cells using antibodies against fetal hemoglobin by FACS and reticulocyte counts using reticount by FACS. Red blood cells sickling was assessed under hypoxia.
# [3] = test system: SS RBCs; experiment: RBC sickling under hypoxia ex vivo, RBCs from treated SCD mice; details: Townes S/S mice; for effect on red blood cell sickling under hypoxia (conclusion): 185 mg/kg i.p. daily D0 to D15; for percentage of sickling cells at D0 / percentage of sickling cells after 15 days treatment: 185 mg/kg/d i.p., RBCs ex vivo 30 minutes hypoxia (1% Oz)
# Description: as §1, §2, §3, §4, §5, §6, §7, §8
# FIGS. 3, 4 and 5 show the ability of compounds 001 (FIG. 3), 010 (FIG. 4) and 011 (FIG. 5) to prevent sickling of SS RBCs at a 1% Oz. SS RBCs from treated mice and collected at D0, D5, D10 and D15 were submitted to hypoxia for 30 minutes in a hypoxic chamber (1% Oz). Percentage of sickling RBCs was then assessed for each time point with compounds 001, 010 and 011.
# [4] = test system: Townes S/S mice; experiment: Concentration of red blood cells in blood of SCD-model mice; details: for effect on concentration of RBC in blood: i.p. once per day D0 to D15 (compound 001 185 mg/kg, L-Gln 180 mg/kg), under normoxia and hypoxia, vs vehicle or L-Gln
# Description: (§9) The purpose of this study is to evaluate the effects of i.p. daily administration of compound 001 at 185 mg/kg and/or L-Glutamine (L-Gln) at 180 mg/Kg on hematological parameters and RBC sickling. L-Gln has received approval by the FDA for the treatment of sickle cell disease (SCD) patients in the United States as it has been shown that L-Gln administration reduces the severity and frequency of VOCs. Townes S/S mice on a 129/B6 mixed genetic background aged 8-12 weeks. The powder of compound 001 (185 mg/kg) was dissolved in vehicle (the solution is used at room temperature for maximum 1 day). The powder of L-Glutamine (180 mg/kg) was dissolved in vehicle (the solution is used at room temperature for maximum 1 day). In Townes S/S mice, mouse alpha- and beta-globin gene loci are deleted and replaced by human genes coding for the alpha- and beta-globin. When carrying two copies of the beta S allele, mice develop a human sickle disease phenotype with sickle-shaped red blood cells are seen in blood smears. Group description: • Group 1: Vehicle PBS (i.p.) • Group 2: Compound 001 (185 mg/kg) • Group 3 L-Gln (180 mg/kg) • Group 4: Compound 001 (185 mg/kg)+L-Gln (180 mg/kg) Mice were i.p treated with Compound 001, L-Gln or the combination of compound 001+L-Gln during all the experiment (D0 to D15) once per day. Last injection occurred 24 hours before sacrifice. Retro-orbital blood collection was performed at the inclusion and at D15. Ex-vivo blood collected were assessed for blood parameters and RBC sickling ex vivo under normoxia (20% Oz) and hypoxia (1% Oz for 0.5 hour).
# [5] = test system: Townes S/S mice; experiment: Hemoglobin concentration in blood of SCD-model mice; details: for effect on hemoglobin concentration in blood: i.p. once per day D0 to D15 (compound 001 185 mg/kg, L-Gln 180 mg/kg), under normoxia and hypoxia, vs vehicle or L-Gln
# Description: as §9
# [6] = test system: Townes S/S mice; experiment: Hematocrit percentage in blood of SCD-model mice; details: for effect on hematocrit percentage in blood: i.p. once per day D0 to D15 (compound 001 185 mg/kg, L-Gln 180 mg/kg), under normoxia and hypoxia, vs vehicle or L-Gln
# Description: as §9, with “hour). […] III. CONCLUSION” for “hour).”
# [7] = 185 mg/kg/d i.p., hypoxia (1% Oz for 0.5 hour) vs normoxia
Compound,effect on proportion of circulating erythroid cells expressing fetal hemoglobin (conclusion) [1],"mean F-cells after treatment ([1]; 185 mg/kg/d i.p., over the 15 days treatment)","mean F-cells, starting value ([1]; 185 mg/kg/d i.p., value before the 15 days treatment)",percentage of reticulocytes after treatment ([2]; over the 15 days treatment),"percentage of reticulocytes, starting value ([2]; value before the 15 days treatment)",effect on red blood cell sickling under hypoxia (conclusion) [3],percentage of sickling cells at D0 [3],percentage of sickling cells after 15 days treatment [3],"effect of hypoxia on RBC in blood of treated mice [4, 7]",effect on concentration of RBC in blood [4],"effect of hypoxia on hemoglobin in blood of treated mice [5, 7]",effect on hemoglobin concentration in blood [5],"effect of hypoxia on hematocrit percentage in blood of treated mice [6, 7]",effect on hematocrit percentage in blood [6]
"NC(=O)c1ccc[n+]([C@@H]2O[C@H](COP(=O)([O-])O)[C@@H](O)[C@H]2O)c1 (stereo in doubt) [Compound 001, NMN]",increase the proportion of circulating erythroid cells expressing fetal hemoglobin,8%,less than 5%,30%,70%,reduce red blood cell sickling under hypoxia,40%,less than 10%,did not result in a decrease,significant increase,did not result in a decrease,significant increase,did not result in a decrease,significant increase
"α,α-diNMN [Compound 011]",increase the proportion of circulating erythroid cells expressing fetal hemoglobin,,,,,reduce red blood cell sickling under hypoxia,31%,20%,,,,,,
"NC(=O)CC[C@H](N)C(=O)O [L-Gln, L-Glutamine, reference compound]",,,,,,,,,,did not affect,,did not affect,,did not affect
"α,β-diNMN [Compound 010]",increase the proportion of circulating erythroid cells expressing fetal hemoglobin,,,,,reduce red blood cell sickling under hypoxia,32%,less than 15%,,,,,,

# From US12403153B2, “Nicotinamide mononucleotide derivatives and use thereof in the treatment and prevention of a red blood cell disorder” (Nuvamid SA, priority 2020, dated 2025)
